Assay results taken from patent publication US20250154144A1 (CHILDREN'S HOSPITAL MEDICAL CENTER, priority 2021, published 2025).
Read-outs that look alike come from different tables or passages of the source. Values belong to the compound of their own block, whether it stands above or below them.

Tests used:
FLT3 [1] = target: T1, FLT3 (Homo sapiens, UniProt P36888); assay: RBC HotSpot Kinase Assay, FLT3; conditions: FLT3 IC50
T1 sequence (P36888 610-943 limits assumed): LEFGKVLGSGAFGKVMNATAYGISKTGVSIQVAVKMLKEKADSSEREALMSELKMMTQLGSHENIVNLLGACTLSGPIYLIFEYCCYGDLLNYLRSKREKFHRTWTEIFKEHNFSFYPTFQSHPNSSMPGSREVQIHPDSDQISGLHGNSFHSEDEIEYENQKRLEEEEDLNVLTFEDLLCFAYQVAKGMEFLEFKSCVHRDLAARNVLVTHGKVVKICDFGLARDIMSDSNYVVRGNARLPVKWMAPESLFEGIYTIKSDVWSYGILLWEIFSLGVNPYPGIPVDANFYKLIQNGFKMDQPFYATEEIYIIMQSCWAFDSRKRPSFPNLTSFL

IRAK1 = IRAK1 (Homo sapiens, UniProt P51617); assay: RBC HotSpot Kinase Assay, IRAK1; conditions: IRAK1 IC50
IRAK4 [2] = target: T2, IRAK4 (Homo sapiens, UniProt Q9NWZ3); assay: RBC HotSpot Kinase Assay, IRAK4; conditions: IRAK4 IC50
T2 sequence (Q9NWZ3 1-460): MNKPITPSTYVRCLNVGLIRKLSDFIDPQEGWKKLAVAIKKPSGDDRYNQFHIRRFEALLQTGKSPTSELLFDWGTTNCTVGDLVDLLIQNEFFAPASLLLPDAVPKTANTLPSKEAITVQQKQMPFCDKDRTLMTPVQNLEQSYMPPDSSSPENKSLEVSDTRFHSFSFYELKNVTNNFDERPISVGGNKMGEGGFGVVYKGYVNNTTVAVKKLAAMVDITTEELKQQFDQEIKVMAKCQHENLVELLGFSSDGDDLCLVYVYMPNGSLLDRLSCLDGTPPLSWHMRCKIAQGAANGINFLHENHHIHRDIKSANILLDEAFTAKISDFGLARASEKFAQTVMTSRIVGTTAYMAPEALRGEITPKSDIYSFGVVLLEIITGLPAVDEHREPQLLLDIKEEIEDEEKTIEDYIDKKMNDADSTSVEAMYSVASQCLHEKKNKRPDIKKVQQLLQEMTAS

FLT3 [3] = target: T3, FLT3 (Homo sapiens, UniProt P36888); assay: Reaction Biology NanoBRET target engagement assay in HEK-293 cells, FLT3; conditions: NanoBRET FLT3 IC50, HEK-293 cells
T3 sequence (P36888 27-993): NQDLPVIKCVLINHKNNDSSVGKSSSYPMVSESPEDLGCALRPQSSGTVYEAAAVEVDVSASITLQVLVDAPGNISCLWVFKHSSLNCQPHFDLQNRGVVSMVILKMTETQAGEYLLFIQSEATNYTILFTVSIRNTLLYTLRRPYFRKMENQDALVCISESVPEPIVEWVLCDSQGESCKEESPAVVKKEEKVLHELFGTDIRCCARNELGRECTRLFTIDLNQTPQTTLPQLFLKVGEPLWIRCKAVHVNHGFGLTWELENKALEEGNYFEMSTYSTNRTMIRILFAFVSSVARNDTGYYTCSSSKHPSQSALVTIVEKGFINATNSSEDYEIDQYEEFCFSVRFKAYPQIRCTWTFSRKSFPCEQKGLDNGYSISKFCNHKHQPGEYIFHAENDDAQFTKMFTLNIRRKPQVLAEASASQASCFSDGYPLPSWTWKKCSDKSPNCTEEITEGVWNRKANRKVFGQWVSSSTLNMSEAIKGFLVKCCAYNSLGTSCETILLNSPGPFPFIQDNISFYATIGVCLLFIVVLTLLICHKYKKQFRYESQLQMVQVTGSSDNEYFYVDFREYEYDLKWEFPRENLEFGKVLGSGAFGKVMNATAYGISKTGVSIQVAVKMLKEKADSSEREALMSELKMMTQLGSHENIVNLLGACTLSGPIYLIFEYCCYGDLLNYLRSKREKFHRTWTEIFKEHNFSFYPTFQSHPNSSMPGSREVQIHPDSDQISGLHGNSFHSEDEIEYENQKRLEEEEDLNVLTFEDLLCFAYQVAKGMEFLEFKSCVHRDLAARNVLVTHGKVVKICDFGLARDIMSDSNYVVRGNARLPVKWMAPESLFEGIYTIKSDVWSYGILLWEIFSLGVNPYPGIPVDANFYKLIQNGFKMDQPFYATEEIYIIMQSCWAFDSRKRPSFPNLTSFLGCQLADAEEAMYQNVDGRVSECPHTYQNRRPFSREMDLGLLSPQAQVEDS

IRAK4 [4] = target: T2, IRAK4; assay: Reaction Biology NanoBRET target engagement assay in HEK-293 cells, IRAK4; conditions: NanoBRET IRAK4 IC50, HEK-293 cells
MOLM14 D835Y cells = assay: cells; assay type: cell-based; conditions: Homo sapiens, MOLM-14, 48 h, 48 hours, Cell Titer Glo; read-out: MOLM14 D835Y IC50
MOLM14 F691L cells = assay: cells; assay type: cell-based; conditions: Homo sapiens, MOLM-14, 48 h, 48 hours, Cell Titer Glo; read-out: MOLM14 F691L IC50
THP1 cells = assay: Combination drug screening, Cell Titer Glo, 10 × 10 matrix, THP1 cells; assay type: cell-based
MOLM14(D835Y) cells = assay type: cell-based; conditions: MOLM14(D835Y) cells; for Excess HSA Score: 10 × 10
[5] = with (+)-BAY-1251152, single compound range 0-10,000 nM or 0-20,000 nM
[6] = with AMG-232, single compound range 0-10,000 nM or 0-20,000 nM
[7] = with AZD-5363, single compound range 0-10,000 nM or 0-20,000 nM
[8] = with Eprenetapopt/APR-246, single compound range 0-10,000 nM or 0-20,000 nM
[9] = with Ivosidenib, single compound range 0-10,000 nM or 0-20,000 nM
[10] = with Lenalidomide, single compound range 0-10,000 nM or 0-20,000 nM
[11] = with Palbociclib, single compound range 0-10,000 nM or 0-20,000 nM
[12] = with Prednisolone, single compound range 0-10,000 nM or 0-20,000 nM
[13] = with SNDX-5613, single compound range 0-10,000 nM or 0-20,000 nM
[14] = with TNO-155, single compound range 0-10,000 nM or 0-20,000 nM
[15] = with Trametinib, single compound range 0-10,000 nM or 0-20,000 nM
[16] = with Ulixertinib, single compound range 0-10,000 nM or 0-20,000 nM
[17] = with Venetoclax (ABT-199), single compound range 0-10,000 nM or 0-20,000 nM
[18] = combination with (+)-BAY-1251152
[19] = combination with Eprenetapopt/APR-246
[20] = combination with Venetoclax (ABT-199)

IRAK1, sequence (P51617 whole entry): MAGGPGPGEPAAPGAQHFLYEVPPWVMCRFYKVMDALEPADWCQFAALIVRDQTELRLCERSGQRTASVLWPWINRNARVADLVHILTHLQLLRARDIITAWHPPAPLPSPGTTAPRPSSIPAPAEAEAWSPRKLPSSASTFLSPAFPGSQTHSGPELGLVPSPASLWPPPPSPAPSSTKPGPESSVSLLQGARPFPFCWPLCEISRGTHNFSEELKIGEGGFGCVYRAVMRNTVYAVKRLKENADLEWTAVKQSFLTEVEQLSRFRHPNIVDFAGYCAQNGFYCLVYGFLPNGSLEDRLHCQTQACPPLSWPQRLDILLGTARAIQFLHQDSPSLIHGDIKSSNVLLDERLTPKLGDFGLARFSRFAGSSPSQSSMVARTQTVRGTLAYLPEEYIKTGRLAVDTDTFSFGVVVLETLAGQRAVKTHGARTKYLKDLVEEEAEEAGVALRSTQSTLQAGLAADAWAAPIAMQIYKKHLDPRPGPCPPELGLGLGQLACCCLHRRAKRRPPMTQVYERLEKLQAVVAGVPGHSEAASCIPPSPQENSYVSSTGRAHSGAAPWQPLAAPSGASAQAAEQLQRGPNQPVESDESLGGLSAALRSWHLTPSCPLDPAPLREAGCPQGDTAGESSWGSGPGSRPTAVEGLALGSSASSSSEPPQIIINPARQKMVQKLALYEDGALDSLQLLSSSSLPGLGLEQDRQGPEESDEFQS

- IC50 (FLT3 [1]): < 0.5 nM
- IC50 (IRAK1): 158 nM
- IC50 (IRAK4 [2]): 4 nM
- IC50 (FLT3 [3]): 137 nM
- IC50 (IRAK4 [4]): 2 nM
SMILES: CC(C)(O)c1ccc2ncc(-c3ccnc(N[C@H]4CNCC[C@@H]4F)n3)n2c1 [Compound 42, 2-(3-(2-(((3S,4S)-4-fluoropiperidin-3-yl)amino)pyrimidin-4-yl)imidazo[1,2-a]pyridin-6-yl)propan-2-ol]

- IC50 (MOLM14 D835Y cells): 24 nM
- IC50 (MOLM14 F691L cells): 55 nM
- IC50 (FLT3 [1]): < 0.5 nM
- IC50 (IRAK1): 62 nM
- IC50 (IRAK4 [2]): 1 nM
SMILES: COc1ccn2c(-c3cncc(N[C@@H]4CCCNC4)n3)cnc2c1 [Compound 5, (R)-6-(7-methoxyimidazo[1,2-a]pyridin-3-yl)-N-(piperidin-3-yl)pyrazin-2-amine]
- Comments (THP1 cells; [5]): Synergistic
- Excess HSA Score (THP1 cells; [5]): −264.5
- Comments (THP1 cells; [6]): Antagonistic
- Excess HSA Score (THP1 cells; [6]): 105.5
- Comments (THP1 cells; [7]): Synergistic
- Excess HSA Score (THP1 cells; [7]): −94.57
- Comments (THP1 cells; [8]): Antagonistic
- Excess HSA Score (THP1 cells; [8]): 163.2
- Comments (THP1 cells; [9]): Antagonistic
- Excess HSA Score (THP1 cells; [9]): 190
- Comments (THP1 cells; [10]): Antagonistic
- Excess HSA Score (THP1 cells; [10]): 264.6
- Comments (THP1 cells; [11]): Antagonistic
- Excess HSA Score (THP1 cells; [11]): 624.7438
- Comments (THP1 cells; [12]): Antagonistic
- Excess HSA Score (THP1 cells; [12]): 31.68
- Comments (THP1 cells; [13]): Antagonistic
- Excess HSA Score (THP1 cells; [13]): 340
- Comments (THP1 cells; [14]): Antagonistic
- Excess HSA Score (THP1 cells; [14]): 28.11
- Comments (THP1 cells; [15]): Antagonistic
- Excess HSA Score (THP1 cells; [15]): 374.3
- Comments (THP1 cells; [16]): Antagonistic
- Excess HSA Score (THP1 cells; [16]): 565.8
- Comments (THP1 cells; [17]): Synergistic
- Excess HSA Score (THP1 cells; [17]): −1771.116
- Excess HSA Score (MOLM14(D835Y) cells; [18]): 11.13
- Excess HSA Score (MOLM14(D835Y) cells; combination with AMG-232): −114.6
- Excess HSA Score (MOLM14(D835Y) cells; combination with AZD-5363): −297.4
- Excess HSA Score (MOLM14(D835Y) cells; [19]): −154.6246
- Excess HSA Score (MOLM14(D835Y) cells; combination with Ivosidenib): −34.74
- Excess HSA Score (MOLM14(D835Y) cells; combination with Lenalidomide): −84.4505
- Excess HSA Score (MOLM14(D835Y) cells; combination with Palbociclib): −483.7
- Excess HSA Score (MOLM14(D835Y) cells; combination with Prednisolone): −69.46
- Excess HSA Score (MOLM14(D835Y) cells; combination with SNDX-5613): −465.3
- Excess HSA Score (MOLM14(D835Y) cells; combination with TNO-155): −575.9
- Excess HSA Score (MOLM14(D835Y) cells; combination with Trametinib): 213.7
- Excess HSA Score (MOLM14(D835Y) cells; combination with Ulixertinib): −1042
- Excess HSA Score (MOLM14(D835Y) cells; [20]): −862.5
- Comments (MOLM14(D835Y) cells; [18]): Antagonistic
- Comments (MOLM14(D835Y) cells; combination with Ulixertinib): Synergistic

- IC50 (MOLM14 D835Y cells): 7 nM
- IC50 (MOLM14 F691L cells): 55 nM
- IC50 (FLT3 [1]): < 0.5 nM
- IC50 (IRAK1): 30 nM
- IC50 (IRAK4 [2]): 2 nM
SMILES: FC(F)COc1ccn2c(-c3ccnc(N[C@H]4CNCC[C@@H]4F)n3)cnc2c1 [Compound 33, 4-(7-(2,2-difluoroethoxy)imidazo[1,2-a]pyridin-3-yl)-N-((3S,4S)-4-fluoropiperidin-3-yl)pyrimidin-2-amine]
- Excess HSA Score (THP1 cells; THP1 cells, 10 × 10, combination with (+)-BAY-1251152): −13.85
- Excess HSA Score (THP1 cells; THP1 cells, 10 × 10, combination with AMG-232): −215.5
- Excess HSA Score (THP1 cells; THP1 cells, 10 × 10, combination with AZD-5363): −132.5
- Excess HSA Score (THP1 cells; THP1 cells, 10 × 10, combination with Eprenetapopt/APR-246): 545.1487
- Excess HSA Score (THP1 cells; THP1 cells, 10 × 10, combination with Ivosidenib): −154.2
- Excess HSA Score (THP1 cells; THP1 cells, 10 × 10, combination with Lenalidomide): 178.6
- Excess HSA Score (THP1 cells; THP1 cells, 10 × 10, combination with Palbociclib): −194.6
- Excess HSA Score (THP1 cells; THP1 cells, 10 × 10, combination with Prednisolone): 467.2
- Excess HSA Score (THP1 cells; THP1 cells, 10 × 10, combination with SNDX-5613): 587.7
- Excess HSA Score (THP1 cells; THP1 cells, 10 × 10, combination with TNO-155): −195.2
- Excess HSA Score (THP1 cells; THP1 cells, 10 × 10, combination with Trametinib): −463.7
- Excess HSA Score (THP1 cells; THP1 cells, 10 × 10, combination with Ulixertinib): −63.1
- Excess HSA Score (THP1 cells; THP1 cells, 10 × 10, combination with Venetoclax (ABT-199)): −1595
- Comments (THP1 cells; THP1 cells, combination with Lenalidomide): Antagonistic
- Comments (THP1 cells; THP1 cells, combination with Venetoclax (ABT-199)): Synergistic
- Excess HSA Score (MOLM14(D835Y) cells; [18]): 684.1
- Excess HSA Score (MOLM14(D835Y) cells; combination with AMG-232): −604.4
- Excess HSA Score (MOLM14(D835Y) cells; combination with AZD-5363): 320.5
- Excess HSA Score (MOLM14(D835Y) cells; [19]): −279.9
- Excess HSA Score (MOLM14(D835Y) cells; combination with Ivosidenib): −12.14
- Excess HSA Score (MOLM14(D835Y) cells; combination with Lenalidomide): −11.33
- Excess HSA Score (MOLM14(D835Y) cells; combination with Palbociclib): 347
- Excess HSA Score (MOLM14(D835Y) cells; combination with Prednisolone): −659.1
- Excess HSA Score (MOLM14(D835Y) cells; combination with SNDX-5613): 95.25
- Excess HSA Score (MOLM14(D835Y) cells; combination with TNO-155): 177.1
- Excess HSA Score (MOLM14(D835Y) cells; combination with Trametinib): −226.8
- Excess HSA Score (MOLM14(D835Y) cells; combination with Ulixertinib): −441.5
- Excess HSA Score (MOLM14(D835Y) cells; [20]): −315.6
- Comments (MOLM14(D835Y) cells; combination with Prednisolone): Synergistic
- Comments (MOLM14(D835Y) cells; combination with SNDX-5613): Antagonistic

- IC50 (MOLM14 D835Y cells): 473 nM
- IC50 (MOLM14 F691L cells): 7500 nM
- IC50 (FLT3 [1]): 5 nM
- IC50 (IRAK1): 961 nM
- IC50 (IRAK4 [2]): 42 nM
SMILES: CC(C)Oc1ccn2c(-c3nccc(N[C@H]4CNC[C@@H]4F)n3)cnc2c1 [Compound 52, N-((3S,4S)-4-fluoropyrrolidin-3-yl)-2-(7-isopropoxyimidazo[1,2-a]pyridin-3-yl)pyrimidin-4-amine]
